Data published in US20120015907A1, “Furopyridine compounds and uses thereof” (NOVARTIS AG, priority 2010, published 2012).

target: T1, HCV polymerase (Hepatitis C virus genotype 1b, UniProt Q9WMX2); test: biochemical; conditions: NS5B polymerase IC50 μM, polymerase assay of Biological Example 1
T1 construct: (His)6 (C)
Text: A number of assays have been published to assess these activities. A general method that assesses the gross increase of HCV virus in culture was disclosed in U.S. Pat. No. 5,738,985 to Miles et al. In vitro assays have been reported in Ferrari et al. Jnl. of Vir., 73:1649-1654, 1999; Ishii et al., Hepatology, 29:1227-1235, 1999; Lohmann et al., Jnl of Bio. Chem., 274:10807-10815, 1999; and Yamashita et al., Jnl. of Bio. Chem., 273:15479-15486, 1998.
WO 97/12033, filed on Sep. 27, 1996, by Emory University, listing C. Hagedorn and A. Reinoldus as inventors, which claims priority to U.S. Provisional Patent Application Ser. No. 60/004,383, filed on September 1995, described an HCV polymerase assay that can be used to evaluate the activity of the of the compounds described herein. Another HCV polymerase assay has been reported by Bartholomeusz, et al., Hepatitis C Virus (HCV) RNA polymerase assay using cloned HCV non-structural proteins; Antiviral Therapy 1996:1(Supp 4) 18-24.

Row | Structure (SMILES) | IC50 [µM]
1 | CNC(=O)c1c(-c2ccc(C)cc2)oc2nc(N(CCCCCP(C)(=O)O)S(C)(=O)=O)c(I)cc12 [Example 23.9998, 5-(N-(5-iodo-3-(methylcarbamoyl)-2-p-tolylfuro[2,3-b]pyridin-6-yl)methylsulfonamido)pentyl (methyl)phosphinic acid] | 0.011
2 | CCOP(C)(=O)CCCCN(c1nc2oc(-c3ccc(C)cc3)c(C(=O)NC)c2cc1C1CC1)S(C)(=O)=O (stereo not shown) [Example 23.99993, ethyl 4-(N-(5-cyclopropyl-3-(methylcarbamoyl)-2-p-tolylfuro[2,3-b]pyridin-6-yl)methylsulfonamido)butyl (methyl)phosphinate] | 0.011
3 | CNC(=O)c1c(-c2ccc(C)cc2)oc2nc(N(CCCCCP(C)(=O)O)S(C)(=O)=O)c(C3CC3)cc12 [Example 23.999991, 5-(N-(5-cyclopropyl-3-(methylcarbamoyl)-2-p-tolylfuro[2,3-b]pyridin-6-yl)methylsulfonamido)pentyl (methyl)phosphinic acid] | 0.004
4 | CCOP(C)(=O)CCCCN(c1nc2oc(-c3ccc(CC)cc3)c(C(=O)NC)c2cc1I)S(C)(=O)=O (stereo not shown) [Example 23.9991, ethyl 4-(N-(2-(4-ethylphenyl)-5-iodo-3-(methylcarbamoyl)furo[2,3-b]pyridin-6-yl)methylsulfonamido) butyl(methyl)phosphinate] | 0.026

same assay, conditions: polymerase assay of Biological Example 1; read-out: NS5B polymerase IC50

Row | IC50 [µM] | Structure (SMILES)
5 | 0.147 | CCc1cc2c(C(=O)NC)c(-c3ccc(F)cc3)oc2nc1N(CC1CCOCC1)S(C)(=O)=O [Example 21.994, 5-ethyl-2-(4-fluorophenyl)-N-methyl-6-(N-((tetrahydro-2H-pyran-4-yl)methyl)methylsulfonamido)furo[2,3-b]pyridine-3-carboxamide]
6 | 0.115 | CNC(=O)c1c(-c2ccc(F)cc2)oc2nc(N(CCCCC(=O)OC)S(C)(=O)=O)c(I)cc12 [Example 18, 5-{[2-(4-Fluoro-phenyl)-5-iodo-3-methylcarbamoyl-furo[2,3-b]pyridin-6-yl]-methanesulfonyl-amino}-pentanoic acid methyl ester]
7 | 0.147 | CNC(=O)c1c(-c2ccc(F)cc2)oc2nc(N(C)S(C)(=O)=O)c(CCC#N)cc12 [Example 14, 5-(2-cyanoethyl)-2-(4-fluorophenyl)-N-methyl-6-(N-methylmethylsulfonamido)furo[2,3-b]pyridine-3-carboxamide]
8 | 0.474 | CNC(=O)c1c(-c2ccc(F)cc2)oc2nc3c(cc12)CCCCN(S(C)(=O)=O)CCCN3S(C)(=O)=O [Example 36.5, 2-(4-Fluoro-phenyl)-9,13-bis-methanesulfonyl-6,7,8,9,10,11,12,13-octahydro-5H-1-oxa-9,13,14-triaza-cycloundeca[f]indene-3-carboxylic acid methylamide]
9 | 0.002 | CNC(=O)c1c(-c2ccc(C)cc2)oc2nc(N(CCCCBr)S(C)(=O)=O)c(C3CC3)cc12 [Example 29.997, 6-(N-(4-bromobutyl)methylsulfonamido)-5-cyclopropyl-N-methyl-2-p-tolylfuro[2,3-b]pyridine-3-carboxamide]
10 | 0.041 | CCc1cc2c(C(=O)NC)c(-c3ccc(F)cc3)oc2nc1N(CCCCC(=O)N(C)C)S(C)(=O)=O [Example 22.992, 6-(N-(5-(dimethylamino)-5-oxopentyl)methylsulfonamido)-5-ethyl-2-(4-fluorophenyl)-N-methylfuro[2,3-b]pyridine-3-carboxamide]
11 | 0.223 | CNC(=O)c1c(-c2ccc(F)cc2)oc2nc(N(C)S(C)(=O)=O)c(CCCC(O)CO)cc12 (stereo not shown) [Example 4.92, 5-(4,5-dihydroxypentyl)-2-(4-fluorophenyl)-N-methyl-6-(N-methylmethylsulfonamido)furo[2,3-b]pyridine-3-carboxamide]
12 | 0.228 | CCc1cc2c(C(=O)NC)c(-c3ccc(F)cc3)oc2nc1N(CCc1ccc(OC)cc1)S(C)(=O)=O [Example 21.993, 5-ethyl-2-(4-fluorophenyl)-6-(N-(4-methoxyphenethyl)methylsulfonamido)-N-methylfuro[2,3-b]pyridine-3-carboxamide]
13 | 0.734 | CNC(=O)c1c(-c2ccc(F)cc2)oc2nc(N(C)S(C)(=O)=O)c(CC3CO3)cc12 (stereo not shown) [Example 12, 2-(4-fluorophenyl)-N-methyl-6-(N-methylmethylsulfonamido)-5-(oxiran-2-ylmethyl)furo[2,3-b]pyridine-3-carboxamide]
14 | 0.009 | CNC(=O)c1c(-c2ccc(C)cc2)oc2nc(N(CCCCCO)S(C)(=O)=O)c(I)cc12 [Example 23.99991, 6-(N-(5-hydroxypentyl)methylsulfonamido)-5-iodo-N-methyl-2-p-tolylfuro[2,3-b]pyridine-3-carboxamide]
15 | 0.045 | CCc1cc2c(C(=O)NC)c(-c3ccc(F)cc3)oc2nc1N(CCOc1ccc2cccnc2c1)S(C)(=O)=O [Example 22.8, 5-ethyl-2-(4-fluorophenyl)-N-methyl-6-(N-(2-(quinolin-7-yloxy)ethyl)methylsulfonamido)furo[2,3-b]pyridine-3-carboxamide]
16 | 0.002 | CNC(=O)c1c(-c2ccc(C)cc2)oc2nc(N(CCCCCO)S(C)(=O)=O)c(C3CC3)cc12 [Example 23.99996, 5-cyclopropyl-6-(N-(5-hydroxypentyl)methylsulfon amido)-N-methyl-2-p-tolylfuro[2,3-b]pyridine-3-carboxamide]
17 | 0.051 | CNC(=O)c1c(-c2ccc(F)cc2)oc2nc(N(C)S(C)(=O)=O)c(CCCCC(=O)N3CCC[C@H]3C(N)=O)cc12 [Example 4.8, (S)-5-(5-(2-carbamoylpyrrolidin-1-yl)-5-oxopentyl)-2-(4-fluorophenyl)-N-methyl-6-(N-methylmethylsulfonamido)furo[2,3-b]pyridine-3-carboxamide]
18 | 0.216 | CNC(=O)c1c(-c2ccc(F)cc2)oc2nc(N(C)S(C)(=O)=O)c(CCCC(C)O)cc12 (stereo not shown) [Example 4.93, 2-(4-fluorophenyl)-5-(4-hydroxypentyl)-N-methyl-6-(N-methylmethylsulfonamido)furo[2,3-b]pyridine-3-carboxamide]
19 | 0.825 | CNC(=O)c1c(-c2ccc(F)cc2)oc2nc(N(C)S(C)(=O)=O)c(C(C)O)cc12 (stereo not shown) [Example 11, 2-(4-fluorophenyl)-5-(1-hydroxyethyl)-N-methyl-6-(N-methylmethylsulfonamido)furo[2,3-b]pyridine-3-carboxamide]
20 | 0.114 | CNC(=O)c1c(-c2ccc(F)cc2)oc2nc(N(CCn3ccnc3)S(C)(=O)=O)c(I)cc12 [Example 23.995, 6-(N-(2-(1H-imidazol-1-yl)ethyl)methylsulfonamido)-2-(4-fluorophenyl)-5-iodo-N-methylfuro[2,3-b]pyridine-3-carboxamide]
21 | 0.251 | CCc1cc2c(C(=O)NC)c(-c3ccc(F)cc3)oc2nc1N(CCOc1cccc(C(=O)OC)c1)S(C)(=O)=O [Example 22.6, methyl 3-(2-(N-(5-ethyl-2-(4-fluorophenyl)-3-(methylcarbamoyl)furo[2,3-b]pyridin-6-yl)methylsulfonamido)ethoxy)benzoate]
22 | 0.003 | CNC(=O)c1c(-c2ccc(F)cc2)oc2nc(N(CCCCC(=O)O)S(C)(=O)=O)c(C3CC3)cc12 [Example 26.9, 5-(N-(5-cyclopropyl-2-(4-fluorophenyl)-3-(methylcarbamoyl)furo[2,3-b]pyridin-6-yl)methylsulfonamido) pentanoic acid]
23 | 0.074 | CCc1cc2c(C(=O)NC)c(-c3ccc(F)cc3)oc2nc1N(CCCN(C)S(=O)(=O)c1ccccc1)S(C)(=O)=O [Example 23.9, 5-ethyl-2-(4-fluorophenyl)-N-methyl-6-(N-(3-(N-methylphenylsulfonamido)propyl)methylsulfonamido) furo[2,3-b]pyridine-3-carboxamide]
24 | 0.003 | CNC(=O)c1c(-c2ccc(C)cc2)oc2nc(N(CCCC(C#N)CC(=O)O)S(C)(=O)=O)c(C3CC3)cc12 (stereo not shown) [Example 29.999995, 3-cyano-6-(N-(5-cyclopropyl-3-(methylcarbamoyl)-2-p-tolylfuro[2,3-b]pyridin-6-yl)methylsulfonamido) hexanoic acid]
25 | 0.161 | CNC(=O)c1c(-c2ccc(F)cc2)oc2nc3c(cc12)CCCCN3S(C)(=O)=O [Example 39, 2-(4-Fluoro-phenyl)-9-methanesulfonyl-6,7,8,9-tetrahydro-5H-1-oxa-9,10-diaza-cyclohepta[f]indene-3-carboxylic acid methylamide]
26 | 0.108 | CNC(=O)c1c(-c2ccc(F)cc2)oc2nc(N(CCCC(O)CO)S(C)(=O)=O)c(I)cc12 (stereo not shown) [Example 18.93, 6-(N-(4,5-dihydroxypentyl)methylsulfonamido)-2-(4-fluorophenyl)-5-iodo-N-methylfuro[2,3-b]pyridine-3-carboxamide]
27 | 0.408 | CNC(=O)c1c(-c2ccccn2)oc2nc(N(C)S(C)(=O)=O)c(I)cc12 [Example 2.3, 5-iodo-N-methyl-6-(N-methylmethylsulfonamido)-2-(pyridin-2-yl)furo[2,3-b]pyridine-3-carboxamide]
28 | 0.498 | CNC(=O)c1c(-c2ccc(F)cc2)oc2nc(N(C)S(C)(=O)=O)c(CCCCCNC(C)=O)cc12 [Example 14.3, 5-(5-Acetylamino-pentyl)-2-(4-fluoro-phenyl)-6-(methanesulfonyl-methyl-amino)-furo[2,3-b]pyridine-3-carboxylic acid methylamide]
